Measurements as given in US20240190849A1, “AMINOPYRIMIDINE COMPOUNDS AND METHODS OF THEIR USE” (TYRA BIOSCIENCES, INC., priority 2021, published 2024).

How the values were obtained:
FGFR1 = biological target: T1, FGFR1 (Homo sapiens, UniProt P11362); experiment: Kinase binding assay (kinase-tagged T7 phage, affinity beads, qPCR readout), FGFR1; settings: FGFR binding data
T1 construct: made in house; host or cells: E. coli derived from BL21, infected with T7 phage
In short: (§1)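 Dissociation constants were measured by bead-capture competition at 0.9% DMSO, room temperature, 1 hour. qPCR of eluted kinase supplied the signal.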

FGFR2 = biological target: T2, FGFR2 (Homo sapiens, UniProt P21802); experiment: Kinase binding assay (kinase-tagged T7 phage, affinity beads, qPCR readout), FGFR2; settings: FGFR binding data
T2 construct: made in house; host or cells: E. coli derived from BL21, infected with T7 phage
In short: as §1

FGFR3 = biological target: T3, FGFR3 (Homo sapiens, UniProt P22607); experiment: Kinase binding assay (kinase-tagged T7 phage, affinity beads, qPCR readout), FGFR3; settings: FGFR binding data
T3 construct: made in house; host or cells: E. coli derived from BL21, infected with T7 phage
In short: as §1

FGFR3 (V555M) = biological target: T4, FGFR3 (V555M) (Homo sapiens, UniProt P22607, V555M); experiment: Kinase binding assay (kinase-tagged T7 phage, affinity beads, qPCR readout), FGFR3 (V555M); settings: FGFR binding data
T4 construct: made in house; host or cells: E. coli derived from BL21, infected with T7 phage
In short: as §1

[1] = test system: RT112/84 (Bladder Cancer), FGFR3-TACC3 fusion; experiment: Cancer cell viability assay (Cell Titer-Glo), RT112/84; format: cell-based; settings: Homo sapiens, RT112/84 cells, 72 hours
From the text: (§2) RT112/84, UM-UC-14, SNU-16 and KG-1 Cancer Cell Line Cell Viability Assays
(§3) To detect the change of intracellular ATP by Cell Titer-Glo@ and to evaluate the inhibitory effect of the compounds on cancer cell lines by determining the in vitro IC50 value of the compounds.
(§4) Cell Titer-Glo@ 2.0 Luminescent cell viability assay reagent was purchased from Promega (Madison, WI). RT112/84, SNU-16, and KG-1 cell lines were purchased from American Type Culture Collection (Manassas, VA). UM-UC-14 cell line was purchased from Sigma (St. Louis, MO). RT112/84, UM-UC-14, SNU-16, and KG-1 cells were cultured in RPMI1640 media supplemented with 10% fetal bovine serum. Cultures were maintained at 37° C. in a humidified atmosphere of 5% CO2 and 95% air.
(§5) Cell Viability Assay Procedure: Cells were plated in 96-well clear bottom/white plates (Corning #3903) at 10,000 cells/well in 100 μl of media, incubated overnight. The next day, test compound DMSO stock solutions were made at 10 mM and 2 μM final concentration. Compounds were then added to cells in a 9-dose, […] dilution series starting at 30 μM with an HP 300e Digital Dispenser (each dose was applied in triplicate). DMSO was backfilled to each well up to 301 nL total volume of test compound+DMSO, and a total of 301 nL DMSO was added to a control/no test compound well in triplicate. The cells in cell culture plates were incubated with the compounds at 37° C. and 5% CO2 for 72 hours. Then 50 μl of Cell Titer Glo 2.0 reagent was added to each well of the cell culture plates. The contents were covered from light and mixed on an orbital shaker at room temperature for 10 min. Luminescence was recorded by a Synergy H1 Microplate Reader (Biotek, Winooski, VT). Cells were assessed as a percentage of DMSO only treated control cells. Curves were plotted and IC50 values were calculated using the GraphPad Prism 8 program based on a sigmoidal dose-response equation (4 parameter).

[2] = test system: UM-UC-14 (Bladder Cancer), FGFR3(S249C); experiment: Cancer cell viability assay (Cell Titer-Glo), UM-UC-14; format: cell-based; settings: UMUC14, UM-UC-14 cells, 72 hours
From the text: as §2, §3, §4, §5

[3] = test system: KG-1 (Acute Myeloid Leukemia), FGFR1OP2-FGFR1 fusion; experiment: Cancer cell viability assay (Cell Titer-Glo), KG-1; format: cell-based; settings: Homo sapiens, KG-1 cells, 72 hours
From the text: as §2, §3, §4, §5

[4] = test system: SNU-16 (Gastric Carcinoma), FGFR2 amplification; experiment: Cancer cell viability assay (Cell Titer-Glo), SNU-16; format: cell-based; settings: Homo sapiens, SNU-16 cells, 72 hours, read-out: SNU16 FGFR2 (IC50 nM)
In short: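 Cells seeded at 10,000/well in RPMI1640 with 10% FBS, then exposed 72 h at 37° C. to a 9-point 10-fold dilution series from 30 μM, in triplicate. Viability read as ATP luminescence (CellTiter-Glo 2.0) as percent of DMSO control; IC50 from 4-parameter sigmoidal fit.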

T2 sequence (P21802 22-821): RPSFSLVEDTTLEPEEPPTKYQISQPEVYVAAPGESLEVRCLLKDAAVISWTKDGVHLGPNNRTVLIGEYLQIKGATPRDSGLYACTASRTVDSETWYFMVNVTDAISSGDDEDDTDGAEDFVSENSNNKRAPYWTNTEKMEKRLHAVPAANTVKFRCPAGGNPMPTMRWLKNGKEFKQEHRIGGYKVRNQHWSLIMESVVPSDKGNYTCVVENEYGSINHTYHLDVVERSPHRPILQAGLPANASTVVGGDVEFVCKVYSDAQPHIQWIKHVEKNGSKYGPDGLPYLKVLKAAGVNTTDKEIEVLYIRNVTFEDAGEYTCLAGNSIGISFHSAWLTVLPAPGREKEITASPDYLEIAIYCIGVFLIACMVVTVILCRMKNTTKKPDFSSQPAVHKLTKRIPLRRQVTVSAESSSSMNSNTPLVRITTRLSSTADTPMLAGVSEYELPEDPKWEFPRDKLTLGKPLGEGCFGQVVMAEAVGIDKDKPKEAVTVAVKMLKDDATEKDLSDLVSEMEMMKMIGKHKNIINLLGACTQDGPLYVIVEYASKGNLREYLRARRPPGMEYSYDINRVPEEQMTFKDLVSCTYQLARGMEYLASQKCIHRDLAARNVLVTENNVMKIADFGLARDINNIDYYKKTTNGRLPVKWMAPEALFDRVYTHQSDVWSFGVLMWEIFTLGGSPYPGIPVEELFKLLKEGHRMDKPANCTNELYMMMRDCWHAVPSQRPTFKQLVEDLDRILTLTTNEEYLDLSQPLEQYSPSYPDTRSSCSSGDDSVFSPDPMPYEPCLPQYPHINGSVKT
T4 sequence (P22607 23-806 V555M): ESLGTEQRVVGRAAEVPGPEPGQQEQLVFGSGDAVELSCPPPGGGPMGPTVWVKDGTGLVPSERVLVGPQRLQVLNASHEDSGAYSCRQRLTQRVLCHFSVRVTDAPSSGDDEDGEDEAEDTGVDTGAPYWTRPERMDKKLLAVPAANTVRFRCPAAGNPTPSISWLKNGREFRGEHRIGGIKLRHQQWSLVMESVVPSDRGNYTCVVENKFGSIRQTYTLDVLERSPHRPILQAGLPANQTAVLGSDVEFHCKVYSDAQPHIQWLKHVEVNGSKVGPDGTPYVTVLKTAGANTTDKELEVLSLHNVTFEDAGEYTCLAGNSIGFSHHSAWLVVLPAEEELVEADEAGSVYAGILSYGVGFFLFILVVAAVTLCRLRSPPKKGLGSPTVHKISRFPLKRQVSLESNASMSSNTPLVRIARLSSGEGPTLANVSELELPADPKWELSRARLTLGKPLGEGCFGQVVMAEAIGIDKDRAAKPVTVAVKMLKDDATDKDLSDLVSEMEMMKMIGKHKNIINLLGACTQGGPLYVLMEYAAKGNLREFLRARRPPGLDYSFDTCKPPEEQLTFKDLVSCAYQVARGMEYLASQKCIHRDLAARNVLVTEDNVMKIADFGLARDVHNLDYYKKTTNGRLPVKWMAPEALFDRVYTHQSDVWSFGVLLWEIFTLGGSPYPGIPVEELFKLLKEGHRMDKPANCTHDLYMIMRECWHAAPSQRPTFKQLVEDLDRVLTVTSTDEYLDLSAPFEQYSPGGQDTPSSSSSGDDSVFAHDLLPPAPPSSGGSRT
T3 sequence (P22607 23-806): as the sequence (P22607 23-806 V555M) above, with M533V counted along it
T1 sequence (P11362 22-822): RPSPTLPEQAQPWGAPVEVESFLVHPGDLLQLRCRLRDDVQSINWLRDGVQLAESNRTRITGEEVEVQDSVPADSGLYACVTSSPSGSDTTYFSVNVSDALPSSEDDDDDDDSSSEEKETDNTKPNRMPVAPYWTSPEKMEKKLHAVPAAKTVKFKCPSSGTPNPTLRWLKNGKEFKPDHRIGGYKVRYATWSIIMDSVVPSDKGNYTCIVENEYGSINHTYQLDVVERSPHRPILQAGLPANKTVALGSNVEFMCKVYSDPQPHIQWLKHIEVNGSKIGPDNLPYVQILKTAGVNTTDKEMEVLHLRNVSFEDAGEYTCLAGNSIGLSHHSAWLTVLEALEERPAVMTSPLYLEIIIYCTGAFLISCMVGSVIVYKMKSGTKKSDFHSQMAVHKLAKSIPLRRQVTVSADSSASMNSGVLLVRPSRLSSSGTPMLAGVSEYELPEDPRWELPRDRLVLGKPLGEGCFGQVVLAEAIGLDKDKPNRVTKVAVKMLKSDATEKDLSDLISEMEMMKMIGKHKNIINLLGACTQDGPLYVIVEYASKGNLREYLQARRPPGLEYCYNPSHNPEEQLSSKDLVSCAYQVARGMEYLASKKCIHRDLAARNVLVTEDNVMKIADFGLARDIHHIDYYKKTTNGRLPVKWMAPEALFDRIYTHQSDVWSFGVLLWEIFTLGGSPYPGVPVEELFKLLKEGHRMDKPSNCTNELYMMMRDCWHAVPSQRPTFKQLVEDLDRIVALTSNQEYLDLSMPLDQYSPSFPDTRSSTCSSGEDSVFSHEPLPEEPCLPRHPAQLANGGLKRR

SMILES | Kd (FGFR1) [nM] | Kd (FGFR2) [nM] | Kd (FGFR3) [nM] | Kd (FGFR3 (V555M)) [nM] | IC50 [1] [nM] | IC50 [2] [nM] | IC50 [3] [nM] | IC50 [4] [nM]
C=CC(=O)Nc1ccc2c(ccn2-c2nc(Nc3cnn(C)c3)ncc2Cl)c1 [Example 2, N-[1-[5-chloro-2-[(1-methylpyrazol-4-yl)amino]pyrimidin-4-yl]indol-5-yl]prop-2-enamide] | 0.1 to 100 | 0.1 to 100 | 0.1 to 100 | 0.1 to 100 | 0.1 to 100 | 0.1 to 100 | 0.1 to 100 | 
C=CC(=O)Nc1ccc2c(ccn2-c2nc(Nc3cccc(OCCN4CCOCC4)c3)ncc2Cl)c1C [Example 7, N-[1-[5-chloro-2-[3-(2-morpholinoethoxy)anilino]pyrimidin-4-yl]-4-methyl-indol-5-yl]prop-2-enamide] | 0.1 to 100 | 100 to 250 | 100 to 250 | 0.1 to 100 | > 1000 | > 1000 | 250 to 1000 | 
C=CC(=O)Nc1ccc2c(c1)c(C)cn2-c1nc(Nc2cnn(C)c2)ncc1C [Example 8, N-[3-Methyl-1-[5-methyl-2-[(1-methylpyrazol-4-yl)amino]pyrimidin-4-yl]indol-5-yl]prop-2-enamide] | 0.1 to 100 | 0.1 to 100 | 0.1 to 100 | 0.1 to 100 | 0.1 to 100 | 0.1 to 100 | 0.1 to 100 | 
C=CC(=O)Nc1ccc2c(c1)c(C)cn2-c1nc(Nc2cccc(OCCN3CCOCC3)c2)ncc1C [Example 9, N-[3-methyl-1-[5-methyl-2-[3-(2-morpholinoethoxy)anilino]pyrimidin-4-yl]indol-5-yl]prop-2-enamide] | 0.1 to 100 | 0.1 to 100 | 0.1 to 100 | 0.1 to 100 | 0.1 to 100 | 0.1 to 100 | 0.1 to 100 | 
C=CC(=O)Nc1ccc2c(ccn2-c2nc(Nc3ccc(OCCN4CCOCC4)cc3)ncc2Cl)c1 [Example 10, N-[1-[5-chloro-2-[4-(2-morpholinoethoxy)anilino]pyrimidin-4-yl]indol-5-yl]prop-2-enamide] | 100 to 250 | 100 to 250 | 0.1 to 100 | 0.1 to 100 | 0.1 to 100 | 0.1 to 100 | 0.1 to 100 | 
C=CC(=O)Nc1ccc2c(c1)c(C)cn2-c1nc(Nc2ccc(OCCN3CCOCC3)cc2)ncc1C [Example 19, N-[3-methyl-1-[5-methyl-2-[4-(2-morpholinoethoxy)anilino]pyrimidin-4-yl]indol-5-yl]prop-2-enamide] | 0.1 to 100 | 0.1 to 100 | 0.1 to 100 | 0.1 to 100 | 0.1 to 100 | 0.1 to 100 | 0.1 to 100 | 
C=CC(=O)Nc1ccc2c(c1)c(C)cn2-c1nc(Nc2ccc(N3CCOCC3)c(F)c2)ncc1Cl [Example 22, N-[1-[5-chloro-2-(3-fluoro-4-morpholino-anilino)pyrimidin-4-yl]-3-methyl-indol-5-yl]prop-2-enamide] | 0.1 to 100 | 0.1 to 100 | 0.1 to 100 | 0.1 to 100 | 0.1 to 100 | 0.1 to 100 | 0.1 to 100 | 
C=CC(=O)Nc1ccc2c(c1)c(C)cn2-c1nc(Nc2ccc(OC)c(OC)c2)ncc1Cl [Example 23, N-[1-[5-chloro-2-(3,4-dimethoxyanilino)pyrimidin-4-yl]-3-methyl-indol-5-yl]prop-2-enamide] | 0.1 to 100 | 0.1 to 100 | 0.1 to 100 | 0.1 to 100 | 0.1 to 100 | 0.1 to 100 | 0.1 to 100 | 
C=CC(=O)Nc1ccc2c(c1)c(C)cn2-c1nc(Nc2ccc(N3CCOCC3)cc2)ncc1Cl [Example 24, N-[3-methyl-1-[5-chloro-2-(4-morpholinoanilino)pyrimidin-4-yl]indol-5-yl]prop-2-enamide] | 0.1 to 100 | 0.1 to 100 | 0.1 to 100 | 0.1 to 100 | 0.1 to 100 | 0.1 to 100 | 0.1 to 100 | 
C=CC(=O)Nc1ccc2c(c1)c(C)cn2-c1nc(Nc2cnn(C)c2)ncc1Cl [Example 25, N-[1-[5-chloro-2-[(1-methylpyrazol-4-yl)amino]pyrimidin-4-yl]-3-methyl-indol-5-yl]prop-2-enamide] | 0.1 to 100 | 0.1 to 100 | 0.1 to 100 | 0.1 to 100 | 0.1 to 100 | 0.1 to 100 | 0.1 to 100 | 
C=CC(=O)Nc1ccc2c(c1)c(C)cn2-c1nc(Nc2cn(C)nc2OC)ncc1Cl [Example 26, N-[1-[5-chloro-2-[(3-methoxy-1-methyl-pyrazol-4-yl)amino]pyrimidin-4-yl]-3-methyl-indol-5-yl]prop-2-enamide] | 0.1 to 100 | 0.1 to 100 | 0.1 to 100 | 0.1 to 100 | 100 to 250 | 0.1 to 100 | 0.1 to 100 | 
C=CC(=O)Nc1ccc2c(-c3nc(Nc4ccc(N5CCOCC5)cc4)ncc3Cl)cn(C)c2c1 [Example 27, N-[3-[5-chloro-2-(4-morpholinoanilino)pyrimidin-4-yl]-1-methyl-indol-6-yl]prop-2-enamide] | 0.1 to 100 | 0.1 to 100 | 0.1 to 100 | 0.1 to 100 | 0.1 to 100 | 0.1 to 100 | 0.1 to 100 | 
C=CC(=O)Nc1ccc2c(c1)c(C)cn2-c1nc(Nc2cn(C)cn2)ncc1Cl [Example 28, N-[1-[5-chloro-2-[(1-methylimidazol-4-yl)amino]pyrimidin-4-yl]-3-methyl-indol-5-yl]prop-2-enamide] | 0.1 to 100 | 0.1 to 100 | 0.1 to 100 | 0.1 to 100 | > 1000 | 0.1 to 100 | 0.1 to 100 | 
C=CC(=O)Nc1ccc2c(-c3nc(Nc4cnn(C)c4)ncc3Cl)cn(C)c2c1 [Example 30, N-[3-[5-Chloro-2-[(1-methylpyrazol-4-yl)amino]pyrimidin-4-yl]-1-methyl-indol-6-yl]prop-2-enamide] | 0.1 to 100 | 0.1 to 100 | 0.1 to 100 | 0.1 to 100 | 0.1 to 100 | 0.1 to 100 | 0.1 to 100 | 
C=CC(=O)Nc1ccc2c(c1)c(C)cn2-c1nc(Nc2cnn(C3CCN(C4COC4)CC3)c2)ncc1Cl [Example 34, N-[1-[5-Chloro-2-[[1-[1-(oxetan-3-yl)-4-piperidyl]pyrazol-4-yl]amino]pyrimidin-4-yl]-3-methyl-indol-5-yl]prop-2-enamide] | 0.1 to 100 | 0.1 to 100 | 0.1 to 100 | 0.1 to 100 | 0.1 to 100 | 0.1 to 100 | 0.1 to 100 | 
C=CC(=O)Nc1ccc2c(c1)c(C)cn2-c1nc(Nc2cn(C)nc2C)ncc1Cl [Example 35, N-[1-[5-chloro-2-[(1,3-dimethylpyrazol-4-yl)amino]pyrimidin-4-yl]-3-methyl-indol-5-yl]prop-2-enamide] | 0.1 to 100 | 0.1 to 100 | 0.1 to 100 | 0.1 to 100 | 0.1 to 100 | 0.1 to 100 | 0.1 to 100 | 
C=CC(=O)Nc1ccc2c(-c3ccnc(Nc4ccc(N5CCOCC5)cc4)n3)cn(C)c2c1 [Example 53, N-[1-Methyl-3-[2-(4-morpholino-anilino)pyrimidin-4-yl]indol-6-yl]prop-2-enamide] | 0.1 to 100 | 0.1 to 100 | 0.1 to 100 | 0.1 to 100 |  | 0.1 to 100 | 0.1 to 100 | 0.1 to 100
C=CC(=O)Nc1ccc2c(c1)c(C)cn2-c1nc(Nc2cnn(C)c2C)ncc1F [Example 146, N-[1-[2-[(1,5-dimethylpyrazol-4-yl)amino]-5-fluoro-pyrimidin-4-yl]-3-methyl-indol-5-yl]prop-2-enamide] | 0.1 to 100 | 0.1 to 100 | 0.1 to 100 | 0.1 to 100 |  | 0.1 to 100 | 0.1 to 100 | 0.1 to 100
